Measurements from paper PMC12276312 (Nature Communications, 2025).

Key:
MxaF/MxaJ complex = target: T1, MxaF/MxaJ complex (Methylorubrum extorquens, UniProt P16027); experiment: isothermal titration calorimetry; type: binding
T1 sequence (P16027 28-626): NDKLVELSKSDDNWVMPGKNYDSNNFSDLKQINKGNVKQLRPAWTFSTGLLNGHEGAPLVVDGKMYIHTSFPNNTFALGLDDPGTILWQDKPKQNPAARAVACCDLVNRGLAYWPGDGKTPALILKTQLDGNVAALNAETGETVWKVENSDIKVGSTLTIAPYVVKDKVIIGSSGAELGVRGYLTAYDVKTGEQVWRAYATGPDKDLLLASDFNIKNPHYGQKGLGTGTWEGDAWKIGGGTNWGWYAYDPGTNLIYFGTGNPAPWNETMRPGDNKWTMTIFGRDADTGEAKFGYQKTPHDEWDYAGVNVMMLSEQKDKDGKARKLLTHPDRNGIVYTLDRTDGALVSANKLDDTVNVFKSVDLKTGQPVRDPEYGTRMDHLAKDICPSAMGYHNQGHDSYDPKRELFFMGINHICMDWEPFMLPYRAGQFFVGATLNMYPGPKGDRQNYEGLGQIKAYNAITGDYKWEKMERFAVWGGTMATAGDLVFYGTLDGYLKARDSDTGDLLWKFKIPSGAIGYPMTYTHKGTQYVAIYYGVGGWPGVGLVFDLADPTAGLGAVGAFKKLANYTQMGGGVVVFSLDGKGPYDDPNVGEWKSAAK
T1 sequence (P16028 26-300 partner): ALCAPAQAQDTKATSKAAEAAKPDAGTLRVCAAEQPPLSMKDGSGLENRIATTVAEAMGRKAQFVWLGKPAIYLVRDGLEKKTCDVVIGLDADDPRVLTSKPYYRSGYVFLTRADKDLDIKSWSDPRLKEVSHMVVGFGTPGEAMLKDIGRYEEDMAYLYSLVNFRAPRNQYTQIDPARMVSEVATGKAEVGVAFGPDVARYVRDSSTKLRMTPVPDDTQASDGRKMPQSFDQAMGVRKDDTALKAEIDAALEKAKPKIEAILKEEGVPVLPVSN

cryo-EM structure = target: the molecule itself; experiment: cryo-EM structure

## O=C(O)c1cc(C(=O)O)c2c(n1)C(=O)C(=O)c1cc(C(=O)O)[nH]c1-2 [PQQ]
MxaF/MxaJ complex
  Kd: ~77 nM

B1: MxaF, untagged, co-expressed with MxaJ-His6 for cryo-EM (enzyme, Methylobacterium extorquens AM1, UniProt P16027 28-626, looked up)
chain: T1 sequence (P16027 28-626)
cryo-EM structure
  stoichiometry N: 2
